Measurements reported in patent US12590062B2, “PD-1/PD-L1 inhibitors” (Gilead Sciences, Inc., priority 2017, dated 2026).

Columns and labels:
PD-1/PD-L1 = PD-1/PD-L1 (Homo sapiens, UniProt Q9NZQ7); assay: PD-1/PD-L1 biochemical protein-protein interaction assay (ALPHA); assay type: binding; settings: 0.3 nM His tagged PD-L1, 2.5 nM biotinylated Fc-PD-1, 60 minutes at 25° C., read-out: IC50 PD-L1-PD-1 Alpha IC50-mono PD-L1-fcP-D1
Method in brief: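 Compounds are tested for blocking the PD-1/PD-L1 extracellular-domain interaction using an ALPHA bead assay, in which inhibition lowers the luminescent signal. Reactions run 60 min at 25° C with 0.3 nM His-PD-L1 and 2.5 nM biotinylated Fc-PD-1. IC50 values come from four-parameter fits.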

[1] = target: T1, interaction between the recombinant extracellular domain (ECD) of PD-1 and native cell-bound PD-L1 (Homo sapiens, UniProt Q9NZQ7); assay: CHO/PD-L1 cell capture assay; assay type: cell-based; settings: CHO cells overexpressing PD-L1, pre-incubated 1 hr with compound, captured on biotinylated Fc-PD-1 coated plates, 75 min at room temperature
T1 construct: expressed in transfected cells
T1 sequence (Q9NZQ7 19-290): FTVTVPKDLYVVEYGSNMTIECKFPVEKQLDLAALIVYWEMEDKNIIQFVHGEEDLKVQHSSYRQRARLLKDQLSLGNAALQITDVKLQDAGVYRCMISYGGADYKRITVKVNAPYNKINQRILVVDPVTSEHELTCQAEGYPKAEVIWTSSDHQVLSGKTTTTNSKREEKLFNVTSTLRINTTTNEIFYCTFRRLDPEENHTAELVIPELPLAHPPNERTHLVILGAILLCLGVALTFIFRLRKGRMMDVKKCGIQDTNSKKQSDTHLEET
Method in brief: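 CHO cells stably overexpressing PD-L1 were pre-incubated 1 hr with compound, then captured 75 min at room temperature on biotinylated Fc-PD-1 ECD bound to streptavidin plates. After glutaraldehyde/Draq5 fixation-staining, captured cells were counted by high-content microscopy; EC50 from four-parameter dose-response fits.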

PD-1/PD-L1 interaction = target: T2, PD-1/PD-L1 interaction (Homo sapiens, UniProt Q9NZQ7); assay: PD-1/PD-L1 NFAT reporter co-culture assay; assay type: cell-based; settings: Jurkat PD-1 NFAT-luciferase cells co-cultured with aAPC-PD-L1 CHO cells, 6 hrs at 37° C.; read-out: EC50 NFAT Luciferase
T2 construct: expressed in transfected cells; host or cells: CHO cells (aAPC-PD-L1) co-cultured with Jurkat cells overexpressing PD-1 and an NFAT-luciferase reporter
T2 sequence (Q9NZQ7 19-290): as above
Method in brief: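 Luminescence (ONE-Glo) after 6 h, 37 °C co-culture reports NFAT-luciferase in PD-1 Jurkat cells, which PD-1/PD-L1 engagement suppresses. Partner cells: CHO expressing anti-CD3 and PD-L1. EC50 from four-parameter dose-response fit.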

Sequence of PD-1/PD-L1 (Q9NZQ7 19-238 limits assumed): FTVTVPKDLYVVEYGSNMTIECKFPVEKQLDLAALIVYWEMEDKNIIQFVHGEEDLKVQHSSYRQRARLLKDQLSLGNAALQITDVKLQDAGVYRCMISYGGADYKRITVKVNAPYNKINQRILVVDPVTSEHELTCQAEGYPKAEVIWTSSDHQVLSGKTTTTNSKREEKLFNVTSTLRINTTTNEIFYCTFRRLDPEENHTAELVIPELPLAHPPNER

SMILES	IC50 (PD-1/PD-L1) [nM]	EC50 [1] [nM]	EC50 (PD-1/PD-L1 interaction) [nM]
COc1nc(OCc2cccc(-c3cccc(COc4ccc(CN[C@@](C)(CO)C(=O)O)c(OC)n4)c3C)c2C)ccc1CN[C@@](C)(CO)C(=O)O [Example 61, (2S,2′S)-2,2′-((((((2,2′-dimethyl-[1,1′-biphenyl]-3,3′-diyl)bis(methylene))bis(oxy))bis(2-methoxypyridine-6,3-diyl))bis(methylene))bis(azanediyl))bis(3-hydroxy-2-methylpropanoic acid)]	0.7	200	6780
Cc1c(COc2cc(OCc3cncc(C#N)c3)c(CNCCO)cc2Cl)cccc1-c1cccc(COc2cc(OCc3cncc(C#N)c3)c(CNCCO)cc2Cl)c1C [Example 68, 5,5′-((((((2,2′-dimethyl-[1,1′-biphenyl]-3,3′-diyl)bis(methylene))bis(oxy))bis(4-chloro-6-(((2-hydroxyethyl)amino)methyl)-3,1-phenylene))bis(oxy))bis(methylene))dinicotinonitrile]	10.3	279	553
Cc1c(-c2ccc(OCCNC[C@@H](O)CC(=O)O)cc2)cccc1-c1cccc(-c2ccc(OCCNC[C@@H](O)CC(=O)O)cc2)c1C [Example 106, (3S,3′S)-4,4′-((((2′,2″-dimethyl-[1,1′:3′,1″:3″,1′″-quaterphenyl]-4,4′″-diyl)bis(oxy))bis(ethane-2,1-diyl))bis(azanediyl))bis(3-hydroxybutanoic acid)]	0.4	110	5270
COc1nc(OCc2cccc(-c3cccc(COc4nc(OC)c(CNC[C@@H](O)CC(=O)O)cc4Br)c3C)c2C)c(Br)cc1CNC[C@@H](O)CC(=O)O [Example 113, (3S,3′S)-4,4′-((((((2,2′-dimethyl-[1,1′-biphenyl]-3,3′-diyl)bis(methylene))bis(oxy))bis(5-bromo-2-methoxypyridine-6,3-diyl))bis(methylene))bis(azanediyl))bis(3-hydroxybutanoic acid)]	0.6	148	193
COc1nc(OCc2cccc(-c3cccc(COc4nc(OC)c(CNC[C@H](O)CC(=O)O)cc4Br)c3C)c2C)c(Br)cc1CNC[C@H](O)CC(=O)O [Example 114, (3R,3′R)-4,4′-((((((2,2′-dimethyl-[1,1′-biphenyl]-3,3′-diyl)bis(methylene))bis(oxy))bis(5-bromo-2-methoxypyridine-6,3-diyl))bis(methylene))bis(azanediyl))bis(3-hydroxybutanoic acid)]	0.5	140	186
Cc1c(COc2nc(OCc3cc(C#N)cc(C#N)c3)c(CNC[C@@H](O)CC(=O)O)cc2Br)cccc1-c1cccc(COc2nc(OCc3cc(C#N)cc(C#N)c3)c(CNC[C@@H](O)CC(=O)O)cc2Br)c1C [Example 121, (3S,3′S)-4,4′-((((((2,2′-dimethyl-[1,1′-biphenyl]-3,3′-diyl)bis(methylene))bis(oxy))bis(5-bromo-2-((3,5-dicyanobenzyl)oxy)pyridine-6,3-diyl))bis(methylene))bis(azanediyl))bis(3-hydroxybutanoic acid)]	1.4	176	74
Cc1c(COc2nc(OCc3cncnc3)c(CNC[C@@H](O)CC(=O)O)cc2Br)cccc1-c1cccc(COc2nc(OCc3cncnc3)c(CNC[C@@H](O)CC(=O)O)cc2Br)c1C [Example 126, (3S,3′S)-4,4′-((((((2,2′-dimethyl-[1,1′-biphenyl]-3,3′-diyl)bis(methylene))bis(oxy))bis(5-bromo-2-(pyrimidin-5-ylmethoxy)pyridine-6,3-diyl))bis(methylene))bis(azanediyl))bis(3-hydroxybutanoic acid)]	0.1	180	327
CNC(=O)COc1nc(OCc2cccc(-c3cccc(COc4nc(OCC(=O)NC)c(CNC[C@@H](O)CC(=O)O)cc4Br)c3C)c2C)c(Br)cc1CNC[C@@H](O)CC(=O)O [Example 147, (3S,3′S)-4,4′-((((((2,2′-dimethyl-[1,1′-biphenyl]-3,3′-diyl)bis(methylene))bis(oxy))bis(5-bromo-2-(2-(methylamino)-2-oxoethoxy)pyridine-6,3-diyl))bis(methylene))bis(azanediyl))bis(3-hydroxybutanoic acid)]	0.3	117	1200
Cc1c(COc2nc(OCC(N)=O)c(CNC[C@@H](O)CC(=O)O)cc2Br)cccc1-c1cccc(COc2nc(OCC(N)=O)c(CNC[C@@H](O)CC(=O)O)cc2Br)c1C [Example 155, (3S,3′S)-4,4′-((((((2,2′-dimethyl-[1,1′-biphenyl]-3,3′-diyl)bis(methylene))bis(oxy))bis(2-(2-amino-2-oxoethoxy)-5-bromopyridine-6,3-diyl))bis(methylene))bis(azanediyl))bis(3-hydroxybutanoic acid)]	0.2	211	6490
Cc1c(COc2ccc(CNC[C@@H](O)CC(=O)O)c(OCc3cncnc3)n2)cccc1-c1cccc(COc2ccc(CNC[C@@H](O)CC(=O)O)c(OCc3cncnc3)n2)c1C [Example 157, (3S,3′S)-4,4′-((((((2,2′-dimethyl-[1,1′-biphenyl]-3,3′-diyl)bis(methylene))bis(oxy))bis(2-(pyrimidin-5-ylmethoxy)pyridine-6,3-diyl))bis(methylene))bis(azanediyl))bis(3-hydroxybutanoic acid)]	0.2	81.1	465
Cc1c(COc2nc(OCCN3CCOCC3)c(CNC[C@@H](O)CC(=O)O)cc2Cl)cccc1-c1cccc(COc2nc(OCCN3CCOCC3)c(CNC[C@@H](O)CC(=O)O)cc2Cl)c1C [Example 159, (3S,3′S)-4,4′-((((((2,2′-dimethyl-[1,1′-biphenyl]-3,3′-diyl)bis(methylene))bis(oxy))bis(5-chloro-2-(2-morpholinoethoxy)pyridine-6,3-diyl))bis(methylene))bis(azanediyl))bis(3-hydroxybutanoic acid)]	0.5	190	538
COc1nc(OCc2cccc(-c3cccc(COc4nc(OC)c(CNC[C@@H](O)CC(=O)O)cc4C(F)(F)F)c3C)c2C)c(C(F)(F)F)cc1CNC[C@@H](O)CC(=O)O [Example 160, (3S,3′S)-4,4′-((((((2,2′-dimethyl-[1,1′-biphenyl]-3,3′-diyl)bis(methylene))bis(oxy))bis(2-methoxy-5-(trifluoromethyl)pyridine-6,3-diyl))bis(methylene))bis(azanediyl))bis(3-hydroxybutanoic acid)]	0.6	191	139
Cc1c(COc2cc(OCc3cncc(C#N)c3)c(CNC[C@@H](O)CC(N)=O)cc2Cl)cccc1-c1cccc(COc2cc(OCc3cncc(C#N)c3)c(CNC[C@@H](O)CC(N)=O)cc2Cl)c1C [Example 165, (3S,3′S)-4,4′-((((((2,2′-dimethyl-[1,1′-biphenyl]-3,3′-diyl)bis(methylene))bis(oxy))bis(5-chloro-2-((5-cyanopyridin-3-yl)methoxy)-4,1-phenylene))bis(methylene))bis(azanediyl))bis(3-hydroxybutanamide)]	5.8	156	352
